Tested on: 217524-143-R1-J4-PDC spheroids with HUVEC/MSC, viability
Experiment: Anticancer human tumor 217524-143-R1-J4-PDC patient-derived pancreatic carcinoma cell line growth inhibition [CLK]
Details: for IC50: curve of first compound; for viability, T/C: stronger effect = lower value
Procedure, shortened: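 Multi-cell-type spheroids combined patient-derived tumor cells with HUVEC endothelial cells and human mesenchymal stem cells. Paired agents were dosed in half-log steps down from about clinical Cmax, or from 10 microM where Cmax was unknown.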

[1] = second compound 0.0316 µM, first compound 0.0316 µM
[2] = second compound 0.0316 µM, first compound 0.1 µM
[3] = second compound 0.0316 µM, first compound 0.316 µM
[4] = second compound 0.0316 µM, first compound 1 µM
[5] = second compound 0.0316 µM, first compound 3.16 µM
[6] = second compound 0.0316 µM, first compound 10 µM
[7] = second compound 0.1 µM, first compound 0.0316 µM
[8] = second compound 0.1 µM, first compound 0.1 µM
[9] = second compound 0.1 µM, first compound 0.316 µM
[10] = second compound 0.1 µM, first compound 1 µM
[11] = second compound 0.1 µM, first compound 3.16 µM
[12] = second compound 0.1 µM, first compound 10 µM
[13] = second compound 0.316 µM, first compound 0.0316 µM
[14] = second compound 0.316 µM, first compound 0.1 µM
[15] = second compound 0.316 µM, first compound 0.316 µM
[16] = second compound 0.316 µM, first compound 1 µM
[17] = second compound 0.316 µM, first compound 3.16 µM
[18] = second compound 0.316 µM, first compound 10 µM
[19] = second compound 1 µM, first compound 0.0316 µM
[20] = second compound 1 µM, first compound 0.1 µM
[21] = second compound 1 µM, first compound 0.316 µM
[22] = second compound 1 µM, first compound 1 µM
[23] = second compound 1 µM, first compound 3.16 µM
[24] = second compound 1 µM, first compound 10 µM
[25] = second compound 3.16 µM, first compound 0.0316 µM
[26] = second compound 3.16 µM, first compound 0.1 µM
[27] = second compound 3.16 µM, first compound 0.316 µM
[28] = second compound 3.16 µM, first compound 1 µM
[29] = second compound 3.16 µM, first compound 3.16 µM
[30] = second compound 3.16 µM, first compound 10 µM
[31] = second compound 10 µM, first compound 0.0316 µM
[32] = second compound 10 µM, first compound 0.1 µM
[33] = second compound 10 µM, first compound 0.316 µM
[34] = second compound 10 µM, first compound 1 µM
[35] = second compound 10 µM, first compound 3.16 µM
[36] = second compound 10 µM, first compound 10 µM
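Further: spheroids exposed to agents for seven days before reading.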
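Wherever viability, T/C is given: 100% = DMSO vehicle control viability.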

Nc1ccn(C2OC(CO)C(O)C2(F)F)c(=O)n1 (stereo unspecified) + CN1CCN(c2cc(C(=O)Nc3cc4cc(-c5cnn(C)c5)ccc4cn3)ccn2)CC1
IC50 (second compound 0.0316 µM): 43.2 nM
IC50 (second compound 0.1 µM): < 31.6 nM
IC50 (second compound 0.316 µM): < 31.6 nM
IC50 (second compound 1 µM): < 31.6 nM
IC50 (second compound 3.16 µM): < 31.6 nM
IC50 (second compound 10 µM): < 31.6 nM
viability, T/C [1]: 60.1%
viability, T/C [2]: 22.9%
viability, T/C [3]: 20.5%
viability, T/C [4]: 19.9%
viability, T/C [5]: 24.1%
viability, T/C [6]: 22.6%
viability, T/C [7]: 36%
viability, T/C [8]: 22.9%
viability, T/C [9]: 16.1%
viability, T/C [10]: 16.9%
viability, T/C [11]: 18.9%
viability, T/C [12]: 17.9%
viability, T/C [13]: 15.4%
viability, T/C [14]: 10.9%
viability, T/C [15]: 11.6%
viability, T/C [16]: 9.15%
viability, T/C [17]: 13.3%
viability, T/C [18]: 10.8%
viability, T/C [19]: 1.8%
viability, T/C [20]: 1.09%
viability, T/C [21]: 1.22%
viability, T/C [22]: 1.31%
viability, T/C [23]: 1.04%
viability, T/C [24]: 1.02%
viability, T/C [25]: 0.72%
viability, T/C [26]: 0.59%
viability, T/C [27]: 0.75%
viability, T/C [28]: 0.76%
viability, T/C [29]: 0.87%
viability, T/C [30]: 0.72%
viability, T/C [31]: 0.2%
viability, T/C [32]: 0.2%
viability, T/C [33]: 0.21%
viability, T/C [34]: 0.25%
viability, T/C [35]: 0.24%
viability, T/C [36]: 0.22%

O=C(c1cc(Cc2n[nH]c(=O)c3ccccc23)ccc1F)N1CCN(C(=O)C2CC2)CC1 + CN1CCN(c2cc(C(=O)Nc3cc4cc(-c5cnn(C)c5)ccc4cn3)ccn2)CC1
IC50 (second compound 0.0316 µM): > 10000 nM
IC50 (second compound 0.1 µM): 537 nM
IC50 (second compound 0.316 µM): < 31.6 nM
IC50 (second compound 1 µM): < 31.6 nM
IC50 (second compound 3.16 µM): < 31.6 nM
IC50 (second compound 10 µM): < 31.6 nM
viability, T/C [1]: 76.5%
viability, T/C [2]: 91.6%
viability, T/C [3]: 71.2%
viability, T/C [4]: 90.3%
viability, T/C [5]: 68.5%
viability, T/C [6]: 64.3%
viability, T/C [7]: 51.5%
viability, T/C [8]: 46.6%
viability, T/C [9]: 49.7%
viability, T/C [10]: 58.5%
viability, T/C [11]: 49.8%
viability, T/C [12]: 43.5%
viability, T/C [13]: 24.3%
viability, T/C [14]: 22.4%
viability, T/C [15]: 20%
viability, T/C [16]: 18%
viability, T/C [17]: 21.4%
viability, T/C [18]: 17.5%
viability, T/C [19]: 2.03%
viability, T/C [20]: 1.38%
viability, T/C [21]: 1.73%
viability, T/C [22]: 1.56%
viability, T/C [23]: 1.8%
viability, T/C [24]: 2%
viability, T/C [25]: 0.89%
viability, T/C [26]: 1.08%
viability, T/C [27]: 0.76%
viability, T/C [28]: 1.05%
viability, T/C [29]: 0.74%
viability, T/C [30]: 0.87%
viability, T/C [31]: 0.16%
viability, T/C [32]: 0.22%
viability, T/C [33]: 0.23%
viability, T/C [34]: 0.22%
viability, T/C [35]: 0.3%
viability, T/C [36]: 0.31%

O=c1[nH]cc(F)c(=O)[nH]1 + CN1CCN(c2cc(C(=O)Nc3cc4cc(-c5cnn(C)c5)ccc4cn3)ccn2)CC1
IC50 (second compound 0.0316 µM): 505 nM
IC50 (second compound 0.1 µM): 196 nM
IC50 (second compound 0.316 µM): < 31.6 nM
IC50 (second compound 1 µM): < 31.6 nM
IC50 (second compound 3.16 µM): < 31.6 nM
IC50 (second compound 10 µM): < 31.6 nM
viability, T/C [1]: 78.1%
viability, T/C [2]: 74.9%
viability, T/C [3]: 46.5%
viability, T/C [4]: 49.6%
viability, T/C [5]: 30.2%
viability, T/C [6]: 28.1%
viability, T/C [7]: 59.5%
viability, T/C [8]: 57.5%
viability, T/C [9]: 45.2%
viability, T/C [10]: 32.4%
viability, T/C [11]: 29%
viability, T/C [12]: 21.7%
viability, T/C [13]: 21.9%
viability, T/C [14]: 23.4%
viability, T/C [15]: 21.2%
viability, T/C [16]: 16.1%
viability, T/C [17]: 15.7%
viability, T/C [18]: 13.4%
viability, T/C [19]: 1.26%
viability, T/C [20]: 1.5%
viability, T/C [21]: 1.42%
viability, T/C [22]: 1.31%
viability, T/C [23]: 1.3%
viability, T/C [24]: 1.65%
viability, T/C [25]: 0.71%
viability, T/C [26]: 0.91%
viability, T/C [27]: 0.78%
viability, T/C [28]: 0.61%
viability, T/C [29]: 0.63%
viability, T/C [30]: 0.59%
viability, T/C [31]: 0.15%
viability, T/C [32]: 0.14%
viability, T/C [33]: 0.15%
viability, T/C [34]: 0.13%
viability, T/C [35]: 0.18%
viability, T/C [36]: 0.19%

Reference: PubChem BioAssay AID2060624 (Molecular Pharmacology Branch, DTP, NCI, 2025)
